Molecules are shown by their SMILES.

The nature of data set [1]: Acute toxicity. The class given is in vivo. To be noted: no method, species or dose given.
In data set [2] the test system is vascular smooth muscle cell derived from a human normal aorta. Nature of the data set: Measurement of the inhibition activity on cell migration (PDGF-mediated, Transwell Chamber). Format: cell-based. The conditions noted are these: concentration of 10^-7M; migration mediated by human PDGF 10 ng/ml, 6 hours; compared with the cell migration counts where no test compound was added; read-out: inhibition activities on cell migration.
Procedure: A Transwell Chamber (Costar Co., registered trademark) was used to measure the inhibitory activity. The chamber is divided into a lower and a upper chamber with an 8-µm pore size membrane filter (PVP-free polycarbonate filter, Nucleopore Co., registered trademark), and the filter was pretreated on its lower surface with 5 µg of rat tail collagen type 1 (Becton Dickinson Co.). To the upper chamber was added 100 µl of a 1.5 x 10^6/ml suspension of cells in a mixed solution of DMEM (supplied by Flow Laboratories Co.) and 0.1% BSA (supplied by Nakarai Tesque Co.), and a solution of human PDGF (supplied by Becton Dickinson Co.), which is prepared by diluting with the same mixed solution to giving the final concentration of 10 ng/ml, is filled in the lower chamber (600 µl). […] After the chamber was allowed to stand under 5%-CO2 atmosphere at 37°C For 6 hours, the filter was taken out. […] After cells adhered on the upper surface of the filter were removed with a cotton swab, the cells migrated to the lower surface were counted under a high-magnifying-power microscope (x200, x400) in terms of cell nuclei. Usually, five fields were counted per filter. Cell migration was expressed by the average cell count of the five fields ± the standard deviation. The significant difference was examined by Student's two-tailed t-test.

For the compound `CCCC[C@H](C)C[C@H](O)/C=C/[C@@H]1[C@H]2CC(CCc3ccc(C(=O)OC)cc3)=C[C@H]2C[C@H]1O` [compound 5e], the acute toxicity entry in data set [1] is “neither of the compounds 5e and 6b had problem with acute toxicity”. Also, the inhibition at 0.1 µM in data set [2] stood at 13.9%.

The record behind these values is patent publication EP0722725A1, “VASCULAR SMOOTH MUSCLE CELL MIGRATION INHIBITOR” (TEIJIN LIMITED, priority 1994, dated 1996).
